Data: patent US20260347372A1, “SMALL MOLECULE INHIBITORS OF KRAS G12D MUTANT” (MERCK SHARP & DOHME LLC, priority 2023, published 2026)

What was measured:
KRAS WT = KRAS WT (Homo sapiens, UniProt P01116); assay: SOS-catalyzed nucleotide exchange assay, KRAS WT (Procedure A); format: biochemical; conditions: GNE
Source text: (§1) Procedure for SOS-Catalyzed Nucleotide Exchange Assay for KRAS-WT, G12C/D/V, G13D, HRAS, and NRAS (Procedure A)
(§2) Recombinant KRAS-G12C protein used in this assay has an additional triple mutation (C51S/C80L/C118S). Whereas KRAS-WT, G12D/V, G13D, HRAS and NRAS are in context of their WT protein sequence background. Specifically, the SOS-catalyzed nucleotide exchange assay utilizes a preformed TR-FRET complex containing a specific biotinylated RAS protein (KRAS-WT, G12C/V/D, G13D, HRAS, NRAS; described above) with Bodipy-GDP, and Terbium-streptavidin. Compounds are preincubated with this complex for 60 minutes. Subsequently, recombinant human SOS protein and unlabeled GTP are added to initiate the exchange reaction. Small molecule inhibitors stabilize the Bodipy-GDP complex whereas the untreated protein rapidly exchanges Bodipy-GDP for unlabeled GTP resulting in reduced TR-FRET signal.
(§3) To assemble the preformed TR-FRET complexes, each biotinylated RAS protein is diluted to 2 μM in an EDTA Buffer (20 mM HEPES pH 7.5, 50 mM sodium chloride, 10 mM EDTA, and 0.01% Tween) and incubated at room temperature for one hour. This mixture is then further diluted to 90 nM in an Assay Buffer (20 mM HEPES pH 7.5, 150 mM sodium chloride, 10 mM magnesium chloride, and 0.005% Tween) containing 15 nM of Terbium-Streptavidin (Invitrogen, catalog #PV3577) and 900 nM of Bodipy-GDP (Invitrogen, catalog #G22360) and incubated at room temperature for six hours. It should be noted that this preformed TR-FRET complex for each of the RAS protein were made ahead of time, aliquoted and stored at −80° C. until the day of the experiment.
(§4) Each test compound (10 mM stock in DMSO) is diluted in DMSO to make a final-10-point, 3-fold dilution and is acoustically dispensed into a 384-well assay plate (Corning, catalog #3820) using an Echo 550 (Labcyte). Each well of the assay plate receives 3 μL of a specific 3×RAS preformed TR-FRET complex and 3 μL of Assay Buffer and is incubated at room temperature for 60 minutes (preincubation time). Each well then receives 3 μL of 3× recombinant human SOS protein and GTP (Sigma, G8877) in Assay Buffer and is incubated at room temperature for 30 minutes (G13D), 60 minutes (KRAS WT/G12C/D, H/NRAS) or 90 minutes for G12V. The final reaction in each well of 9 μL consists of 3 mM GTP, specific Ras and SOS proteins in the following concentrations: KRAS-G12C/SOS=3 nM/40 nM, KRAS-WT and G12D/SOS=1 nM/40 nM, KRAS-G12V/SOS=1.25 nM/160 nM, KRAS-G13D/SOS=1.25 nM/0 nM, HRAS and NRAS=1.25 nM/40 nM.
(§5) The time-resolved fluorescence resonance energy transfer (TR-FRET) signal is measured on an Envision (PerkinElmer) plate reader: Excitation filter=340 nm; emission1=495 nm; emission2=520 nm; dichroic mirror=D400/D505; delay time=[…]. The signal of each well is determined as the ratio of the emission at 520 nm to that at 495 nm. Percent effect of each well is determined after normalization to control wells containing DMSO (no effect) or a saturating concentration of inhibitor (max effect). The apparent effect as a function of compound concentration is fit to a four-parameter logistic equation.
(§6) For Example No. 14, nucleotide exchange assays for KRAS G12D, WT, G12C, and G12V were performed according to Procedure B. All the other compounds were tested according to Procedure A.

KRAS G12V = KRAS G12V (Homo sapiens, UniProt P01116, G12V); assay: SOS-catalyzed nucleotide exchange assay, KRAS G12V (Procedure A); format: biochemical; conditions: GNE
Source text: as §1, §2, §3, §4, §5, §6

KRAS G12D = KRAS G12D (Homo sapiens, UniProt P01116, G12D); assay: SOS-catalyzed nucleotide exchange assay, KRAS G12D (Procedure A); format: biochemical; conditions: guanine nucleotide exchange (GNE)
Source text: as §1, §2, §3, §4, §5, §6

AsPC-1 cells = biological target: T1, AsPC-1 cells (Homo sapiens, UniProt P01116, G12D); assay: Cellular phospho-ERK assay, AsPC-1 cells (KRAS G12D); format: cell-based; conditions: 2 hours, read-out: AsPC1 pERK IC50
T1 construct: p-ERK/total ERK AlphaSureFire read-out
Description: Procedure for Cellular Phospho-ERK Assay in KRAS Wild Type and Mutant (G12D, G12V) Cell Lines
PANC08.13 cells (ATCC® CRL-2551™), containing homozygous KRAS-G12D activating mutation, were cultured in growth medium made of RPMI1640-GlutaMAX™-I (ThermoFisher Scientific 61870) containing 15% heat inactivated fetal bovine serum (ThermoFisher Scientific 10091148)). AsPC-1 cells (ATCC® CRL-1682™), containing homozygous KRAS-G12D activating mutation, were cultured in T150 flask in growth medium (RPMI medium 1640-GlutaMAX™-I (ThermoFisher Scientific 61870) containing 10% fetal bovine serum (ThermoFisher Scientific 10091148)).
Cells for the assay were harvested in growth medium after TrypLE (ThermoFisher scientific 12604021) digestion and were seeded in a 384-well collagen coated cell culture plate (Corning 356702) at a density of 10,000-15,000 cells/20 μL/well, and incubated at 37° C., 5% CO2 overnight. The compound (with 10 mM stock concentration) dose-response titrations were prepared [30 μM final ERK detection assay concentration and 1:3 dilutions, 10-point dose response] and appropriate amounts (270 nL) of test compounds were dispensed in a 384-well intermediate plate using an Echo 550 liquid handler. 30 μL/well of RPMI medium 1640-GlutaMAX™-I was added to the intermediate plate and the contents of the intermediate plate (10 μL/well) were then transferred to the 384-well collagen coated cell culture plate, which was incubated at 37° C., 5% CO2 for 2 hours. After removal of medium from the collagen coated cell culture plate, cells were lysed in lysis buffer from Alpha SureFire® Ultra™ Multiplex p-ERK and total ERK assay kit (PerkinElmer MPSU-PTERK) containing Halt™ Protease and Phosphatase inhibitor cocktail (ThermoFisher Scientific 78446) at room temperature with constant shaking at 300 rpm for 30 minutes. The cell lysates were then transferred to an OptiPlate-384 plate (PerkinElmer 6005620), and the phosphorylation of ERK (p-ERK) and total ERK levels were detected by Alpha SureFire® Ultra™ Multiplex p-EEK kit and total ERK assay kit (PerkinElmer MPSU-PTERK) following the manufacturer's protocol. Assay plates were read on a EnVision Multimode Plate Reader (PerkinElmer), and the ratio of p-ERK vs. total ERK in each well was used as the final readout. Dose response curves were analyzed using a 4-parameter logistic model to calculate IC50 values using Spotfire software.

Chain of KRAS WT (P01116 with tags, fused parts or gaps isoform P01116-2): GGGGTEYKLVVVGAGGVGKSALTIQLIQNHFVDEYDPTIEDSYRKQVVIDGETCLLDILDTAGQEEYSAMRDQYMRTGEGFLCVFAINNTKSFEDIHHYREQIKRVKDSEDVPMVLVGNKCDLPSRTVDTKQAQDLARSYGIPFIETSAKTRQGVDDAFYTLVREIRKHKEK
T1 sequence (P01116 1-188 isoform P01116-2 G12D): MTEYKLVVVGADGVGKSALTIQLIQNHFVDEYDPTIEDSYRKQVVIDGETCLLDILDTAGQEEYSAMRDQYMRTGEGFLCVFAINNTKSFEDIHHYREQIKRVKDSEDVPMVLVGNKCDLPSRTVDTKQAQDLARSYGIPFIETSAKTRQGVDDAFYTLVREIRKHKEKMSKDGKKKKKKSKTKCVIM
Chain of KRAS G12V (P01116 with tags, fused parts or gaps isoform P01116-2 G12V): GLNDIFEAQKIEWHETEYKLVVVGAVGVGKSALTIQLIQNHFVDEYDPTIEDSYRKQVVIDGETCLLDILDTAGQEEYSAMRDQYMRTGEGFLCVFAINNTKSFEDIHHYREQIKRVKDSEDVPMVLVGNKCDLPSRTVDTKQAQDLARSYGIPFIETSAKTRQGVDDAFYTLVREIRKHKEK
Chain of KRAS G12D (P01116 with tags, fused parts or gaps isoform P01116-2 G12D): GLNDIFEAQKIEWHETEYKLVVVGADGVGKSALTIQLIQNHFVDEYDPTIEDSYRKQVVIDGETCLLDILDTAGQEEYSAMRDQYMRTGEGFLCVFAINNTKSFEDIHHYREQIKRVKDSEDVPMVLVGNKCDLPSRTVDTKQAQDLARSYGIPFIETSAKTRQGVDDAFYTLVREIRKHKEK

| Structure (SMILES) | IC50 (KRAS WT) [nM] | IC50 (KRAS G12V) [nM] | IC50 (KRAS G12D) [nM] | IC50 (AsPC-1 cells) [nM] |
| --- | --- | --- | --- | --- |
| F[C@H]1CN2CCC[C@@]2(COc2nc(N3C[C@H]4CC[C@@H](C3)N4)c3c(n2)sc2c(-c4c(C5(F)CC5)c(C(F)(F)F)cc5[nH]ncc45)nccc23)C1 [Ex-79, 4-((1R,5S)-3,8-diazabicyclo[3.2.1]octan-3-yl)-8-(5-(1-fluorocyclopropyl)-6-(trifluoromethyl)-1H-indazol-4-yl)-2-(((2R,7aS)-2-fluorotetrahydro-1H-pyrrolizin-7a(5H)-yl)methoxy)pyrido[4′,3′:4,5]thieno[2,3-d]pyrimidine] | 4810 | 4490 | 12.3 | 612 |
| F[C@H]1CN2CCC[C@@]2(COc2nc(N3C[C@H]4CC[C@@H](C3)N4)c3c(n2)sc2c(-c4c(C5CC5)c(C(F)(F)F)cc5[nH]ncc45)nccc23)C1 [Ex-80, 4-((1R,5S)-3,8-diazabicyclo [3.2.1]octan-3-yl)-8-(5-cyclopropyl-6-(trifluoromethyl)-1H-indazol-4-yl)-2-(((2R,7aS)-2-fluorotetrahydro-1H-pyrrolizin-7a(5H)-yl)methoxy)pyrido [4′,3′:4,5]thieno [2,3-d]pyrimi-dine] | 706 | 734 | 3.57 | 411 |
| Cc1cc2[nH]ncc2c(-c2nccc3c2sc2nc(N4CCCN(C)CC4C)nc(N4C[C@H]5CC[C@@H](C4)N5)c23)c1C(F)(F)F (stereo partly drawn) [Ex-81, 4-((1R,5S)-3,8-diazabicyclo[3.2.1]octan-3-yl)-2-(2,4-dimethyl-1,4-diazepan-1-yl)-8-(6-methyl-5-(trifluoromethyl)-1H-indazol-4-yl)pyrido[4′,3′:4,5]thieno[2,3-d]pyrimidine] | > 11100 | > 11100 | 575 | 6800 |
| C#Cc1c(F)sc2cc3[nH]ncc3c(-c3nccc4c3sc3nc(OC[C@@]56CCCN5C[C@H](F)C6)nc(N5C[C@H]6CC[C@@H](C5)N6)c34)c12 [Ex-82, 4-((1R,5S)-3,8-diazabicyclo[3.2.1]oc-tan-3-yl)-8-(5-ethynyl-6-fluoro-1H-thieno[3,2-f]indazol-4-yl)-2-(((2R,7aS)-2-fluorotetrahydro-1H-pyrrolizin-7a(5H)-yl)methoxy)pyri-do[4′,3′:4,5]thi-eno[2,3-d]pyrimidine] | 12.5 | 16.2 | 1.93 | 6.29 |
| C#Cc1csc2cc3[nH]ncc3c(-c3nccc4c3sc3nc(OC[C@]5(CN6CC7(C6)CC(F)(F)C7)CC5(F)F)nc(N5C[C@H]6CC[C@@H](C5)N6)c34)c12 [Ex-83, 4-((1R,5S)-3,8-diazabicyclo[3.2.1]octan-3-yl)-2-(((R)-1-((6,6-difluoro-2-azaspiro[3.3]heptan-2-yl)methyl)-2,2-difluorocyclopropyl)methoxy)-8-(5-ethynyl-1H-thieno[3,2-f]indazol-4-yl)pyrido[4′,3′:4,5]thieno[2,3-d]pyrimidine] | 430 | 704 | 1.43 | 42.5 |
| C#Cc1csc2cc3[nH]ncc3c(-c3nccc4c3sc3nc(OCC5(C#N)CCOCC5)nc(N5C[C@H]6CC[C@@H](C5)N6)c34)c12 [Ex-84, 4-(((4-((1R,5S)-3,8-diazabicyclo[3.2.1]oc-tan-3-yl)-8-(5-ethynyl-1H-thieno[3,2-f]indazol-4-yl)pyrido[4′,3′:4,5]thi-eno[2,3-d]pyrimi-din-2-yl)oxy)methyl)tetrahydro-2H-pyran-4-carbonitrile] | > 11100 | > 11100 | 111 | 2940 |
| C#Cc1csc2cc3[nH]ncc3c(-c3nccc4c3sc3nc(OC[C@@]56CCCN5C/C(=C\F)C6)nc(N5C[C@H]6CC[C@@H](C5)N6)c34)c12 [Ex-85, 4-((1R,5S)-3,8-diazabicyclo[3.2.1]octan-3-yl)-8-(5-ethynyl-1H-thieno[3,2-f]indazol-4-yl)-2-(((S,Z)-2-(fluoromethylene)tetrahydro-1H-pyrrolizin-7a(5H)-yl)methoxy)pyrido[4′,3′:4,5]thieno[2,3-d]pyrimidine] | 32.1 | 28.2 | 2.06 | 8.52 |
| C#Cc1cc(F)cc2cc3[nH]ncc3c(-c3nccc4c3sc3nc(OC[C@@]56CCCN5C[C@H](F)C6)nc(N5C[C@H]6CC[C@@H](C5)N6)c34)c12 [Ex-86, 4-((1R,5S)-3,8-diazabicyclo[3.2.1]octan-3-yl)-8-(5-ethynyl-7-fluoro-1H-benzo[f]indazol-4-yl)-2-(((2R,7aS)-2-fluorotetrahydro-1H-pyrrolizin-7a(5H)-yl)methoxy)pyrido[4′,3′:4,5]thieno[2,3-d]pyrimidine] | 542 | 1240 | 3.31 | 54.6 |
| CCc1c(F)ccc2cc3[nH]ncc3c(-c3nccc4c3sc3nc(OC[C@@]56CCCN5C[C@H](F)C6)nc(N5C[C@H]6CC[C@@H](C5)N6)c34)c12 [Ex-87, 4-((1R,5S)-3,8-diazabicyclo[3.2.1]octan-3-yl)-8-(5-ethyl-6-fluoro-1H-benzo[f]indazol-4-yl)-2-(((2R,7aS)-2-fluorotetrahydro-1H-pyrrolizin-7a(5H)-yl)methoxy)pyrido[4′,3′:4,5]thieno[2,3-d]pyrimidine] | 467 | 412 | 3.58 | 86.3 |
| C#Cc1c(F)ccc2cc3[nH]ncc3c(-c3nccc4c3sc3nc(OC[C@@]56CCCN5C[C@H](F)C6)nc(N5C[C@H]6CC[C@@H](C5)N6CCCC#N)c34)c12 [Ex-88, 4-((1R,5S)-3-(8-(5-ethynyl-6-fluoro-1H-benzo[f]indazol-4-yl)-2-(((2R,7aS)-2-fluorotetrahydro-1H-pyrrolizin-7a(5H)-yl)methoxy)pyrido[4′,3′:4,5]thieno[2,3-d]pyrimidin-4-yl)-3,8-diazabicyclo[3.2.1]octan-8-yl)butanenitrile] | 743 | 1780 | 100 | 368 |
